Measurements reported in PMC6104039 (Nature Communications, 2018).
Like-named read-outs stand apart in the source and are kept apart here.

Legend:
Type in all cases: biochemical
CerS1 = biological target: T1, CerS1 (Homo sapiens, UniProt P27544); assay: Ceramide synthase assay, HPLC-based with fluorescent NBD-dihydrosphingosine, C18:0-CoA; extracts of HEK293 cells expressing human CerS1; design: host or cells: HEK293
T1 sequence (P27544 1-350): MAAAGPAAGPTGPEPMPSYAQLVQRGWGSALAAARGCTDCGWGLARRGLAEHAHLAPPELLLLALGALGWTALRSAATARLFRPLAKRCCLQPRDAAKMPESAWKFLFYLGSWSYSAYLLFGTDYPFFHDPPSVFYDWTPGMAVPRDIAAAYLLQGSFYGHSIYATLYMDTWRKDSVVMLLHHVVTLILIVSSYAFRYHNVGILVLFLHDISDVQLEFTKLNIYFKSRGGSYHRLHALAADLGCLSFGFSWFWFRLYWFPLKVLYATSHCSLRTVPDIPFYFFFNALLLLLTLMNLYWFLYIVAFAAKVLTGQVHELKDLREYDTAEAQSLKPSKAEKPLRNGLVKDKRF
Experimental: Ceramide synthase assays were carried out using an HPLC-based assay with a fluorescent NBD-dihydrosphingosine substrate. All cell lines used for these assays were originally sourced from ATCC. […] Cells were sonicated in a Diagenode Bioruptor sonicating bath for 5 min, after which cell extracts were cleared by centrifugation at 800 × g for 10 min. Protein concentration in the supernatant was assayed using the bicinchoninic acid (BCA) assay, and the supernatant stored at −80 °C. COS cells were infected with lentiviral constructs expressing murine CerS1, 2, or 5, then homogenised as described above.
The reaction buffer consisted of 20 mM Hepes pH 7.4, 25 mM KCl, 2 mM MgCl2, 0.5 mM dithiothreitol, 0.1% fatty acid free BSA, 10 μM NBD-dihydrosphingosine and 50 μM fatty acid free BSA. C18:0-CoA was used as the fatty acyl substrate for CerS1 and CerS4; C24:1-CoA for CerS2; and C16:0-CoA for CerS5 and CerS6. All reactions were run in triplicate. Test inhibitors were added, after which reactions were started with the addition of 2.5–25 μg lysate protein (optimised depending on the particular CerS isoform being assayed). […] The reaction mixture was transferred to a glass HPLC vial with 300 μL fused glass insert (Thermo Fisher Scientific) and NBD-dihydroceramide reaction products were analysed on a Thermo Scientific Surveyor HPLC connected to a Shimadzu RF-10AXL fluorescent detector (set to gain of 3). […] The gradient started at 20:80 A/B, increasing to 5:95 A/B over 2 min, then to 100% B over 6 min. The gradient was then held at 100% B for 2 min, before re-equilibration to 20:80 A/B for a further 2 min. Peak areas were integrated using Xcalibur software (Thermo Fisher Scientific).

murine CerS5 = biological target: T2, murine CerS5 (Mus musculus, UniProt Q9D6K9); assay: Ceramide synthase assay, NBD-dihydrosphingosine, C16:0-CoA; COS cells expressing murine CerS5; conditions: inhibitor range 10 nM–100 μM; read-out: IC50 mCerS5
T2 construct: expressed in transfected cells; host or cells: COS cells (lentiviral infection)
T2 sequence (Q9D6K9 1-414): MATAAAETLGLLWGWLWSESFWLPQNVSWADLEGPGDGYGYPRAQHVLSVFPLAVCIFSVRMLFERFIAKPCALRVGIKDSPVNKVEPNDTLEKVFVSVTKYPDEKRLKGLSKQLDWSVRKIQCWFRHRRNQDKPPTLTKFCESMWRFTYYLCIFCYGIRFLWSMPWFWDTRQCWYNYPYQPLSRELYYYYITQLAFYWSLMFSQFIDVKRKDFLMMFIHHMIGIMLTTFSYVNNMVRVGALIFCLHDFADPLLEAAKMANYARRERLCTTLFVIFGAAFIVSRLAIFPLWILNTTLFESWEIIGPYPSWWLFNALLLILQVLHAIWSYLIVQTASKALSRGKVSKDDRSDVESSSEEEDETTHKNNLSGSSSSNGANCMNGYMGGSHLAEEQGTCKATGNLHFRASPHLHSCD
Experimental: (§1) Ceramide synthase assays were carried out using an HPLC-based assay with a fluorescent NBD-dihydrosphingosine substrate. All cell lines used for these assays were originally sourced from ATCC. […] Human CerS expression plasmids (pCMV6 plasmids from Origene) were transfected using FuGene-6 transfection reagent, and cells were harvested 24 h after transfection in 20 mM Hepes pH 7.4, 10 mM KCl, 1 mM dithiothreitol, 3 mM β-glycerophosphate, and EDTA-free complete protease inhibitor cocktail (Roche). Cells were sonicated in a Diagenode Bioruptor sonicating bath for 5 min, after which cell extracts were cleared by centrifugation at 800 × g for 10 min. Protein concentration in the supernatant was assayed using the bicinchoninic acid (BCA) assay, and the supernatant stored at −80 °C. COS cells were infected with lentiviral constructs expressing murine CerS1, 2, or 5, then homogenised as described above.
(§2) The reaction buffer consisted of 20 mM Hepes pH 7.4, 25 mM KCl, 2 mM MgCl2, 0.5 mM dithiothreitol, 0.1% fatty acid free BSA, 10 μM NBD-dihydrosphingosine and 50 μM fatty acid free BSA. C18:0-CoA was used as the fatty acyl substrate for CerS1 and CerS4; C24:1-CoA for CerS2; and C16:0-CoA for CerS5 and CerS6. All reactions were run in triplicate. Test inhibitors were added, after which reactions were started with the addition of 2.5–25 μg lysate protein (optimised depending on the particular CerS isoform being assayed). Assays were run for 30 min at 37 °C, and stopped with the addition of 200 μL methanol. The reaction mixture was transferred to a glass HPLC vial with 300 μL fused glass insert (Thermo Fisher Scientific) and NBD-dihydroceramide reaction products were analysed on a Thermo Scientific Surveyor HPLC connected to a Shimadzu RF-10AXL fluorescent detector (set to gain of 3). […] Data was acquired over a 12 min chromatography run using: solvent A, 0.2% formic acid, 2 mM ammonium formate in water; solvent B, 0.2% formic acid, 1 mM ammonium formate in methanol. The gradient started at 20:80 A/B, increasing to 5:95 A/B over 2 min, then to 100% B over 6 min. The gradient was then held at 100% B for 2 min, before re-equilibration to 20:80 A/B for a further 2 min. Peak areas were integrated using Xcalibur software (Thermo Fisher Scientific).

human CerS4 = biological target: T3, human CerS4 (Homo sapiens, UniProt Q9HA82); assay: Ceramide synthase assay, NBD-dihydrosphingosine, C18:0-CoA; U251 cells expressing human CerS4; conditions: inhibitor range 10 nM–100 μM; read-out: IC50 hCerS4
T3 construct: host or cells: U251
T3 sequence (Q9HA82 1-394): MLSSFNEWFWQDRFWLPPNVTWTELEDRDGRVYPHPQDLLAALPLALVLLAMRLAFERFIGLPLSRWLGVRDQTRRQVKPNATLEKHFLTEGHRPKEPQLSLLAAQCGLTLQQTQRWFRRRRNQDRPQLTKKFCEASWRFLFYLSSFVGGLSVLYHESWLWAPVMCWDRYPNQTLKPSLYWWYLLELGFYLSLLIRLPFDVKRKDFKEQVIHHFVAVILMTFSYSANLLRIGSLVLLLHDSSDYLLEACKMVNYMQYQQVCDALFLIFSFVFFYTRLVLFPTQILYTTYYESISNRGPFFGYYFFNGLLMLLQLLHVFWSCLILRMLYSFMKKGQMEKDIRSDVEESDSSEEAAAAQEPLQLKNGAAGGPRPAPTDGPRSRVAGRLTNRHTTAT
Experimental: as §1, §2

[1] = inhibitor range 10 nM–100 μM, read-out: IC50 hCerS1

Row | IC50 (CerS1; read-out: IC50 for inhibition of CerS1) [µM] | SMILES | IC50, all CerS isoforms (CerS1; all CerS isoforms, in words) | IC50 (CerS1; [1]) [µM] | IC50 (murine CerS5) [µM] | IC50 (human CerS4) [µM]
1 |  | CCCC[C@@H](C)[C@@H](OC(=O)C[C@@H](CC(=O)O)C(=O)O)[C@H](C[C@@H](C)C[C@H](O)CCCC[C@@H](O)C[C@H](O)[C@H](C)N)OC(=O)C[C@@H](CC(=O)O)C(=O)O [FB1, reference compound] | sub-micromolar | 0.22 ± 0.05 | 0.5 ± 0.05 | 0.92 ± 0.06
2 |  | CCCCCCCCc1ccc(CCC(N)(CO)CO)cc1 [FTY720, reference compound] |  |  | 15 ± 0.07 | 26 ± 0.18
3 |  | C[C@@](N)(CO)CCc1ccc(OCc2ccccc2)cc1 [G024, (2S)-2-amino-4-(4′-benzyloxyphenyl)-2-methyl-1-butanol] |  | 6 ± 0.1 | 24.3 ± 0.22 | 18 ± 0.12
4 | 0.5 | C[C@@](N)(CO)CCc1ccc(OCc2ccc(Cl)c(Cl)c2)cc1 [P053, (S)-2-amino-4-(4-(3,4-dichlorobenzyloxy)phenyl)-2-methylbutan-1-ol] |  | 0.54 ± 0.06 | 7.2 ± 0.1 | 17.2 ± 0.09
